Experimental data published in patent US8729031B2, “Compounds” (priority 2009, dated 2014).
Values after ≈ are worked out from the molar mass of the structure shown. Read-outs that look alike come from different tables or passages of the source.

Assays:
Type in all cases: cell-based
S. aureus SH1000 = conditions: for MIC against Stapholococcus aureus strain SH1000: strain SH1000, text b20
Method: (§1) Susceptibility testing with the exception of Streptococcus pneumoniae was performed by two-fold serial dilutions in Mueller Hinton Broth supplemented with 50 μg/mL Ca^2+. Susceptibility testing of S. pneumoniae was performed by two-fold serial dilutions in Brain-Heart-Infusion Broth supplemented with 50 μg/mL Ca^2+.

S. aureus R33 (MRSA) = conditions: for MIC against Stapholococcus aureus strain R33: strain R33, text b20
Method: as §1

Streptococcus pneumoniae = experiment: microbe, parasite or virus in culture; conditions: Streptococcus pneumoniae, read-out: MIC
Method: as §1

Compound | MIC in μg/mL against strain S. aureus SH1000 (S. aureus SH1000) | MIC in μg/mL against strain S. aureus R33 (MRSA) (S. aureus R33 (MRSA)) | other results
CC[C@H](C)[C@@H]1NC(=O)[C@@H]2NC(=O)[C@H](CC(C)C)NC(=O)[C@H](NC(=O)[C@@H]3CSC[C@@H](N)C(=O)N[C@@H](CO)C(=O)NCC(=O)N[C@@H](Cc4c[nH]c5ccccc45)C(=O)N[C@@H](C(C)C)C(=O)N3)[C@H](C)SC[C@H](NC(=O)[C@H](CCC(=O)O)NC1=O)C(=O)NCC(=O)N[C@H]1C(=O)N[C@@H](CC(C)C)C(=O)N[C@@H](C(C)C)C(=O)N[C@@H](CS[C@H]2C)C(=O)N[C@@H](C)C(=O)N[C@H](C(=O)N2CCN(c3ccc(Cl)c(Cl)c3)CC2)CS[C@H]1C [Example 10, Deoxyactagardine B [4-(3′,4′-dichlorophenyl)piperazine]monocarboxamide] | 8 µg/mL (≈ 3.83 µM) | – | –
Deoxyactagardine B (2,5-dichlorobenzylamine)monocarboxamide [Example 21] | ≦4 μg/mL | ≦4 μg/mL | –
CC[C@H](C)[C@@H]1NC(=O)[C@@H]2NC(=O)[C@H](CC(C)C)NC(=O)[C@H](NC(=O)[C@@H]3CSC[C@@H](N)C(=O)N[C@@H](CO)C(=O)NCC(=O)N[C@@H](Cc4c[nH]c5ccccc45)C(=O)N[C@@H](C(C)C)C(=O)N3)[C@H](C)SC[C@H](NC(=O)[C@H](CCC(=O)O)NC1=O)C(=O)NCC(=O)N[C@H]1C(=O)N[C@@H](CC(C)C)C(=O)N[C@@H](C(C)C)C(=O)N[C@@H](CS[C@H]2C)C(=O)N[C@@H](C)C(=O)N[C@H](C(=O)NCCCNCCCNCc2cc(Cl)cc(Cl)c2)CS[C@H]1C [Example 20, Deoxyactagardine B [3-(3′-(3″,5″-dichlorobenzylamino)propylamino)propylamine]monocarboxamide] | 8 µg/mL (≈ 3.73 µM) | 8 µg/mL (≈ 3.73 µM) | –
Deoxyactagardine B (3,4-dichlorobenzylamine)monocarboxamide [Example 22] | ≦4 μg/mL | ≦4 μg/mL | –
deoxyactagardine B N-[1-(3-dimethylamino propyl)piperazine]monocarboxamide [reference compound] | – | – | MIC against Stapholococcus aureus strain SH1000 (S. aureus SH1000): approximately 64 μL/mL; MIC against Stapholococcus aureus strain R33 (S. aureus R33 (MRSA)): approximately 64 μL/mL
Deoxyactagardine B (2-chlorobenzylamine)monocarboxamide [Example 23] | ≦4 μg/mL | ≦4 μg/mL | –
Deoxyactagardine B (4-chlorobenzylamine)monocarboxamide [Example 25] | ≦4 μg/mL | ≦4 μg/mL | –
Deoxyactagardine B [3-(2′-aminomethyl-4′-(2″,4″-dichlorophenyl)-furanyl)propylamine]monocarboxamide [Example 32] | ≦4 μg/mL | ≦4 μg/mL | –
CC[C@H]1OC(=O)[C@H](C)[C@@H](O[C@H]2C[C@@](C)(OC)[C@@H](O)[C@H](C)O2)[C@H](C)[C@@H](O[C@@H]2O[C@H](C)C[C@H](N(C)C)[C@H]2O)[C@](C)(O)C[C@@H](C)C(=O)[C@H](C)[C@@H](O)[C@]1(C)O [Erythromycin, reference compound] | – | – | MIC (Streptococcus pneumoniae; isolate QB37301, penicillin Resistant): > 32 µg/mL; MIC (Streptococcus pneumoniae; isolate QB37302, penicillin Resistant): > 32 µg/mL; MIC (Streptococcus pneumoniae; isolate QB37303, penicillin Intermediate): ≤ 0.015 µg/mL; MIC (Streptococcus pneumoniae; isolate QB37304, penicillin Susceptible): 8 µg/mL (≈ 10.9 µM); MIC (Streptococcus pneumoniae; isolate QB37306, penicillin Susceptible): ≤ 0.015 µg/mL; MIC (Streptococcus pneumoniae; isolate QB37307, penicillin Intermediate): ≤ 0.015 µg/mL; MIC (Streptococcus pneumoniae; isolate QB37308, penicillin Susceptible): ≤ 0.015 µg/mL; MIC (Streptococcus pneumoniae; isolate QB37309, penicillin Resistant): 2 µg/mL (≈ 2.73 µM); MIC (Streptococcus pneumoniae; isolate QB37310, penicillin Resistant): > 32 µg/mL; MIC (Streptococcus pneumoniae; isolate QB37311, penicillin Resistant): > 32 µg/mL; MIC (Streptococcus pneumoniae; isolate QB37312, penicillin Intermediate): > 32 µg/mL; MIC (Streptococcus pneumoniae; isolate QB37313, penicillin Susceptible): > 32 µg/mL; MIC (Streptococcus pneumoniae; isolate QB37314, penicillin Resistant): > 32 µg/mL; MIC (Streptococcus pneumoniae; isolate QB37315, penicillin Susceptible): ≤ 0.015 µg/mL; MIC (Streptococcus pneumoniae; isolate QB37316, penicillin Susceptible): ≤ 0.015 µg/mL; MIC (Streptococcus pneumoniae; isolate QB37317, penicillin Susceptible): ≤ 0.015 µg/mL; MIC (Streptococcus pneumoniae; isolate QB37318, penicillin Resistant): 4 µg/mL (≈ 5.45 µM); MIC (Streptococcus pneumoniae; isolate QB37319, penicillin Resistant): > 32 µg/mL
CC[C@H](C)[C@@H]1NC(=O)[C@@H]2NC(=O)[C@H](CC(C)C)NC(=O)[C@H](NC(=O)[C@@H]3CSC[C@@H](N)C(=O)N[C@@H](CO)C(=O)NCC(=O)N[C@@H](Cc4c[nH]c5ccccc45)C(=O)N[C@@H](C(C)C)C(=O)N3)[C@H](C)SC[C@H](NC(=O)[C@H](CCC(=O)O)NC1=O)C(=O)NCC(=O)N[C@H]1C(=O)N[C@@H](CC(C)C)C(=O)N[C@@H](C(C)C)C(=O)N[C@@H](CS[C@H]2C)C(=O)N[C@@H](C)C(=O)N[C@H](C(=O)NCc2ccc(F)cc2F)CS[C@H]1C [Example 15, Deoxyactagardine B (2,4-difluorobenzylamine)monocarboxamide] | 8 µg/mL (≈ 4 µM) | 8 µg/mL (≈ 4 µM) | –
Deoxyactagardine B [3-(2′-aminomethyl-4′-(2″-nitro-4″-chlorophenyl)-furanyl)propylamine]monocarboxamide [Example 33] | ≦4 μg/mL | ≦4 μg/mL | –
Actagardine (3,5-dichlorobenzylamine)monocarboxamide [Example 2] | ≦4 μg/mL | ≦4 μg/mL | –
Deoxyactagardine B 19-[4-(4′-chlorophenyl)piperazine]monocarboxamide [Example 4] | ≦4 μg/mL | ≦4 μg/mL | –
CC[C@H](C)[C@@H]1NC(=O)[C@@H]2NC(=O)[C@H](CC(C)C)NC(=O)[C@H](NC(=O)[C@@H]3CSC[C@@H](N)C(=O)N[C@@H](CO)C(=O)NCC(=O)N[C@@H](Cc4c[nH]c5ccccc45)C(=O)N[C@@H](C(C)C)C(=O)N3)[C@H](C)SC[C@H](NC(=O)[C@H](CCC(=O)O)NC1=O)C(=O)NCC(=O)N[C@H]1C(=O)N[C@@H](CC(C)C)C(=O)N[C@@H](C(C)C)C(=O)N[C@@H](CS[C@H]2C)C(=O)N[C@@H](C)C(=O)N[C@H](C(=O)NCCCCCCNS(=O)(=O)c2c(Cl)cc(Cl)cc2Cl)CS[C@H]1C [Example 27, Deoxyactagardine B [6-(2′,4′,6′-trichlorobenzenesulfonamido)hexylamine]monocarboxamide] | 8 µg/mL (≈ 3.61 µM) | 8 µg/mL (≈ 3.61 µM) | –
Deoxyactagardine B (3-chlorobenzylamine)monocarboxamide [Example 24] | ≦4 μg/mL | ≦4 μg/mL | –
CC[C@H](C)[C@@H]1NC(=O)[C@@H]2NC(=O)[C@H](CC(C)C)NC(=O)[C@H](NC(=O)[C@@H]3CSC[C@@H](N)C(=O)N[C@@H](CO)C(=O)NCC(=O)N[C@@H](Cc4c[nH]c5ccccc45)C(=O)N[C@@H](C(C)C)C(=O)N3)[C@H](C)SC[C@H](NC(=O)[C@H](CCC(=O)O)NC1=O)C(=O)NCC(=O)N[C@H]1C(=O)N[C@@H](CC(C)C)C(=O)N[C@@H](C(C)C)C(=O)N[C@@H](CS[C@H]2C)C(=O)N[C@@H](C)C(=O)N[C@H](C(=O)NCCCCCCNCc2cc(Cl)cc(Cl)c2)CS[C@H]1C [Example 30, Deoxyactagardine B [6-(3′,5′-dichlorobenzylamino)-hexylamine]monocarboxamide] | 4 µg/mL (≈ 1.88 µM) | 8 µg/mL (≈ 3.75 µM) | –
CC[C@H](C)[C@@H]1NC(=O)[C@@H]2NC(=O)[C@H](CC(C)C)NC(=O)[C@H](NC(=O)[C@@H]3CSC[C@@H](N)C(=O)N[C@@H](CO)C(=O)NCC(=O)N[C@@H](Cc4c[nH]c5ccccc45)C(=O)N[C@@H](C(C)C)C(=O)N3)[C@H](C)SC[C@H](NC(=O)[C@H](CCC(=O)O)NC1=O)C(=O)NCC(=O)N[C@H]1C(=O)N[C@@H](CC(C)C)C(=O)N[C@@H](C(C)C)C(=O)N[C@@H](CS[C@H]2C)C(=O)N[C@@H](C)C(=O)N[C@H](C(=O)NCc2ccc(Br)cc2)CS[C@H]1C [Example 9, Deoxyactagardine B [4-bromobenzylamine]monocarboxamide] | 8 µg/mL (≈ 3.92 µM) | – | –
CC[C@H](C)[C@@H]1NC(=O)[C@@H]2NC(=O)[C@H](CC(C)C)NC(=O)[C@H](NC(=O)[C@@H]3CSC[C@@H](N)C(=O)N[C@@H](CO)C(=O)NCC(=O)N[C@@H](Cc4c[nH]c5ccccc45)C(=O)N[C@@H](C(C)C)C(=O)N3)[C@H](C)SC[C@H](NC(=O)[C@H](CCC(=O)O)NC1=O)C(=O)NCC(=O)N[C@H]1C(=O)N[C@@H](CC(C)C)C(=O)N[C@@H](C(C)C)C(=O)N[C@@H](CS[C@H]2C)C(=O)N[C@@H](C)C(=O)N[C@H](C(=O)N2CCN(Cc3ccc(Br)cc3F)CC2)CS[C@H]1C [Example 7, Deoxyactagardine B [4-(2′-fluoro-4′-bromobenzyl)piperazine]monocarboxamide] | 8 µg/mL (≈ 3.76 µM) | 8 µg/mL (≈ 3.76 µM) | –
deoxyactagardine B N-[1-(1-methyl-4-piperidinyl)piperazine]monocarboxamide [reference compound] | – | – | MIC against Stapholococcus aureus strain SH1000 (S. aureus SH1000): approximately 64 μL/mL; MIC against Stapholococcus aureus strain R33 (S. aureus R33 (MRSA)): approximately 64 μL/mL
